Molecules are shown by their SMILES. Bounds are passed on as bounds.

In one series the target is B-Raf V600E (Homo sapiens, UniProt P15056, V600E). As to the kind of experiment: B-Raf V600E biochemical kinase inhibition (AlphaScreen, biotin-MEK1 substrate). The note with it: 100 μM ATP. The essentials:
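Raf kinases phosphorylating biotin-MEK1, reaction started with ATP at 100 μM final. Compounds tested at 8 points by serial dilution from a 0.1 mM DMSO stock.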
In general terms: Bead proximity is the source of the signal in Alpha formats.

Series [1] concerns SW620 colon adenocarcinoma cells (wild-type B-RAF). In words: SW620 cell growth inhibition (ATPlite). The settings on record: Homo sapiens, SW-620, 72 h; SW620, 3 days incubation. Format: cell-based. In a few lines: (§1)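 Cells plated overnight, then exposed 3 days at 37° C to 8-point 1:3 compound dilutions topping at 10 μM final. Viability read as ATPlite luminescence, proportional to cell number; IC50 from luminescence versus concentration.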

Series [2] has as its system A375 melanoma cells (B-Raf V600E). As to the kind of experiment: A375 cell growth inhibition (ATPlite). Format: cell-based. The note with it: Homo sapiens, A-375, 72 h; A375, 3 days incubation. The essentials:
as §1
(Cellular ATP, detected with luciferase, serves as a proxy for viable cell number.)

Series [3] has as its system COLO205 colon adenocarcinoma cells (B-Raf V600E). As to the kind of experiment: COLO205 cell growth inhibition (ATPlite). Format: cell-based. The settings on record: Homo sapiens, COLO 205, 72 h; COLO205, 3 days incubation. The essentials: as §1
In a further series the target is CYP2C19 (Homo sapiens, UniProt P33261). As to the kind of experiment: CYP2C19 inhibition (fluorescent substrate). It is filed as in vitro ADME. The note with it: CYP2C19, CEC substrate; read-out: Cyp IC50 2C19. In a few lines:
(§2)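 Human CYP activity was followed by the fluorescence of the metabolized product of a known substrate, which falls as metabolism is inhibited. Compounds from 100 mM DMSO stocks were serially diluted 1:1 over 10 points in co-factor mix and preincubated 10 min at 37 °C. IC50 was fitted from signal versus concentration.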

The target of a further series is CYP2C9 (Homo sapiens, UniProt P11712). In words: CYP2C9 inhibition (fluorescent substrate). It is filed as in vitro ADME. The settings on record: CYP2C9, MFC substrate; read-out: Cyp IC50 2C9. In a few lines: as §2
Sequence of CYP2C9 (P11712 whole entry): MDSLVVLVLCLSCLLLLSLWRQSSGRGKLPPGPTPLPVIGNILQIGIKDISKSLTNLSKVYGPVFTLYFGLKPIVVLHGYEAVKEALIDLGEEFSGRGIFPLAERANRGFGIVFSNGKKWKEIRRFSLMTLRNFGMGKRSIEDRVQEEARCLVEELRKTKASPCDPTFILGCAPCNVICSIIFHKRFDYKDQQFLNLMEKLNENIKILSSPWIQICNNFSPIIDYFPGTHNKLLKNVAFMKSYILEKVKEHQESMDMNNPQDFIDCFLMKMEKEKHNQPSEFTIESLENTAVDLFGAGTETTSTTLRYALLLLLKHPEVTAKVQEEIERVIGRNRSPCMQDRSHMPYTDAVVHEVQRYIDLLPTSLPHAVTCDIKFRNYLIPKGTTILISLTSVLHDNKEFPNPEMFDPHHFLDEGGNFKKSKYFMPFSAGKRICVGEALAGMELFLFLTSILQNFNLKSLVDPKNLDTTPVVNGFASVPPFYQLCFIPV

Sequence of B-Raf V600E (P15056 whole entry V600E): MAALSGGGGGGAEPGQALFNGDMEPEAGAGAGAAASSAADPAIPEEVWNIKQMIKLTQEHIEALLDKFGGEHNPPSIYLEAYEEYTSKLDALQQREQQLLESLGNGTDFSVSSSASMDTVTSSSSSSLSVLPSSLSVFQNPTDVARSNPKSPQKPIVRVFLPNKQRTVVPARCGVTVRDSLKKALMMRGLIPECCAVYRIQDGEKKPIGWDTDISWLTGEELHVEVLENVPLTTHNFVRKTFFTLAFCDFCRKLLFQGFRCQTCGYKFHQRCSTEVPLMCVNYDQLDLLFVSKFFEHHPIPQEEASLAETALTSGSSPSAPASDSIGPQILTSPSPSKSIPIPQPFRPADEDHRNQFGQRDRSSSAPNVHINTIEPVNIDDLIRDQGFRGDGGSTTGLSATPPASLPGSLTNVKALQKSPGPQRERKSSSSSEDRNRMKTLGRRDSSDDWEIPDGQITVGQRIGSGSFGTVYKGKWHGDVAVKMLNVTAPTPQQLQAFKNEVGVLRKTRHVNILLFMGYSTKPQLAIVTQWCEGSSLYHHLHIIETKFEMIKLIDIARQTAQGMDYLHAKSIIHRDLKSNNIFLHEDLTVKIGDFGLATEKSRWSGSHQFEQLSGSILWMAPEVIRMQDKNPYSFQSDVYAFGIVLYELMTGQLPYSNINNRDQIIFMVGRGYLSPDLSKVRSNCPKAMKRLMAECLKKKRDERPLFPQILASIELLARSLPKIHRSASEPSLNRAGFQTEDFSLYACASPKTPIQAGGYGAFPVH
Sequence of CYP2C19 (P33261 whole entry): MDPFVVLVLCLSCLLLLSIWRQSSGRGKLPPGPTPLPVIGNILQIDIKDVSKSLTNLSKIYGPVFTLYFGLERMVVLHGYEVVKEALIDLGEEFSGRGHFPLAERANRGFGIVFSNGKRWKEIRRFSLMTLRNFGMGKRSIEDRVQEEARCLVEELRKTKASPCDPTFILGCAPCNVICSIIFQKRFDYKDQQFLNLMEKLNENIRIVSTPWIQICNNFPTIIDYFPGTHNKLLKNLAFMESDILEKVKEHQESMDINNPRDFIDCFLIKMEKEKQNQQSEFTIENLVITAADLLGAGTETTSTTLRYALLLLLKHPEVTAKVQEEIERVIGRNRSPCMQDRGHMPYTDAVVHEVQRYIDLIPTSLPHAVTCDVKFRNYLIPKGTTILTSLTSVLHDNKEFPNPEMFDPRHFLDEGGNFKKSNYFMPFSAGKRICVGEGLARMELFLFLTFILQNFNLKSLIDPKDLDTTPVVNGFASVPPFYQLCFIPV

What is called IC50 is the concentration needed to halve the response being measured. For `CCCS(=O)(=O)Nc1ccc(F)c(C(=O)c2c[nH]c3ncc(-c4ccc(N(C)C)nc4)cc23)c1F` [P-2229, Propane-1-sulfonic acid {3-[5-(6-dimethylamino-pyridin-3-yl)-1H-pyrrolo[2,3-b]pyridine-3-carbonyl]-2,4-difluoro-phenyl}-amide], the half-maximal inhibitory concentration (IC50) against B-Raf V600E was under 0.1 µM; in series [1], over 10 µM; in series [2] it was under 0.1 µM; in series [3], under 0.1 µM; on CYP2C19, over 10 µM; on CYP2C9, 5 to 10 µM.

These data come from patent publication US8198273B2, “Compounds and methods for kinase modulation, and indications therefor” (Plexxikon Inc., priority 2009, dated 2012).
